Measured values from US7208314B2, “Compositions and methods for drug delivery using pH sensitive molecules” (priority 2002, dated 2007).
Ends that are not written are not given here.

Legend:
[1] = test system: cells; type: cell-based; details: for Relative Light Units (luciferase expression): pCIluc DNA/poly-L-lysine complex plus 40 μg modified lipid, 48 h; for Relative Light Units relative to poly-L-lysine (no lipid): value in parentheses
[2] = Kinetics of conversion of dimethylmaleamic modified amines to amines at pH 5 (trinitrobenzenesulfonate); type: physicochemical
Procedure: Dimethyl maleamic modified poly-L-lysine (10 mg/mL) was incubated in 10 mM sodium acetate buffer pH 5. At various times, aliquots (10 μg) were removed and added to 0.5 mL of 100 mM borax solution containing 0.4 mM trinitrobenzenesulfonate. A half an hour later, the absorbance of the solution at 420 nm was measured. To determine the concentration of amines at each time point, the extinction coefficient was determine for the product of trinitrobenzenesulfonate and poly-L-lysine. Using this extinction coefficient we were able to calculate the amount of amines and maleamic groups at each time point. A plot of ln (At/A0) as a function of time was a straight line whose slope is the negative of the rate constant for the conversion of maleamic acid to amine and anhydride, where At is the concentration of maleamic acid at a time t and A0 is the initial concentration of maleamic acid. For two separate experiments we calculated rate constants of […] which correspond to half lives of roughly 10 and 4 minutes respectively.
Dimethyl maleamic modified KL3 (0.1 mg/mL) was incubated in 40 mM sodium acetate buffer pH 5 and 1 mM cetyltrimetylammonium bromide. At various times, aliquots (10 μg) were removed and added to 0.05 mL of 1 M borax solution containing 4 mM trinitrobenzenesulfonate. A half an hour later, the absorbance of the solution at 420 nm was measured. […]

[3] = test system: HELA cells; assay: Endosome disruption assay (FITC-dextran, propidium iodide); type: cell-based; details: 50 μg
Procedure: HeLa cells were plated in 6-well tissue culture dishes containing microscope slide coverslips and grown in Delbecco's Modified Eagle's Medium (DMEM)+10% fetal calf serum+penn/strep for 24–48 hours until 30–60% confluent. […] After 25 min, media containing FITC-dextran±melittin was removed, the cells were washed twice with 1 ml 37° C. DMEM lacking FITC-dextran and melittin, and cells were incubated for an additional 35 min at 37° C. in 1 ml fresh DMEM. In order to assess possible cell lysis caused by melittin, propidium iodide was added for the final 5 min of incubation. […] However, if the plasma membrane has been damaged, propidium iodide enters the cell where it will brightly stain the nucleus. To process slides for analysis, cells were washed 3 times with cold phosphate buffered saline (PBS), fixed in PBS+4% formaldehyde for 20–30 min at 4° C., and washed again 3 times with cold PBS. Excess liquid was drained from coverslips which were then mounted onto glass slides. Fluorescence was then analyzed on a Zeiss LSM510 confocal microscope. FITC was excited by a 488 nm argon laser and fluorescence emission was detected by a long pass 505 nm filter. […] For cells incubated with unmodified melittin near 100% cell death was observed as determined by propidium iodide staining of nuclei and loss of cells from the sample.

[4] = test system: red blood cells; assay: Blood lysis experiment on melittin conjugated to microspheres via ketal; type: cell-based
Procedure: The microspheres were taken up in H2O (500 μL) and partitioned into five 100 μL samples. Four of the samples were diluted to 1000 μL with sodium phosphate buffer (100 mM) at pH 7.5, 6.0, 5.5, and 5.0. Samples were held at 37° C., spun down, and 150 μL aliquots taken at 30 min, 60 min, 90 min, and 16 hrs. A portion of each sample (100 μL) was diluted with sodium phosphate buffer (400 μL, pH 7.5) and added to red blood cells (100 μL, pH 7.5). Red blood cell lysis was measured after 10 min by measuring the absorbance at 541 nm. A control sample was also measured in which 100% of the red blood cells had been lysed with melittin alone.
The fifth 100 μL sample was further divided into 25 μL samples, three of which were diluted to 250 μL with sodium phosphate buffer (100 mM) at pH 7.5, 6.0, and 5.0. The samples were held at 37° C. for 30 min, spun down and the supernatant removed, and resuspended in 2.5 M NaCl solution (50 μL) and mixed. After 10 min the microspheres were spun down and the supernatant removed. The samples were added to red blood cells (500 μL, 100 mM) and the absorbance was measured at 541 nm.

[5] = test system: 3T3 mouse embryonic fibroblast cells; assay: In vitro transfection with DNA-PLL-KL3 and dimethylmaleamic KL3, luciferase expression; type: cell-based
Procedure: To a complex of plasmid DNA pCIluc (10 μg/mL, 0.075 mM in phosphate, 2.6 μg/μL pCIluc; prepared according to Danko, I., Williams, P., Herweijer, H. Zhang, G., Latendresse, J. S., Bock, I., Wolff, J. A. Hum. Mol. Genetics 1997, 6, 1435.) and poly-L-lysine (40 μg/mL) in 0.5 mL of 5 mM HEPES pH 7.5 was added succinylated poly-L-lysine (34,000 MW, Aldrich Chemical), 2,3-dimethylmaleamic melittin and 2,3-dimethylmaleamic KL3. The DNA-poly-L-lysine-2,3-dimethylmaleamic peptide complexes were then added (200 μL) to wells containing 3T3 mouse embryonic fibroblast cells in 290 mM glucose and 5 mM HEPES buffer pH 7.5. After 1.5 h, the glucose media was replaced with Dubelco's modified Eagle Media and the cells were allowed to incubate for 48 h. The cells were then harvested and then assayed for luciferase expression as previously reported (Wolff, J. A., Malone, R. W., Williams, P., Chong, W., Acsadi, G., Jani, A. and Felgner, P. L. Direct gene transfer into mouse muscle in vivo. Science, 1465–1468, 1990.). A Lumat LB 9507 (EG&G Berthold, Bad-Wildbad, Germany) luminometer was used. The amount of transfection was reported in relative light units and is the average transfection for two separate wells of cells.

[6] = Hemolysis assay: melittin or KL3 blocked by anionic polymer or dimethylmaleic anhydride; type: cell-based; details: pH 7.5; 30 minutes, 37 C; read-out: Percent hemolysis
Procedure: The membrane-disruptive activity of the peptide melittin and subsequent blocking of activity by anionic polymers was measured using a red blood cell (RBC) hemolysis assay. RBCs were harvested by centrifuging whole blood for 4 min. They were washed three times with 100 mM dibasic sodium phosphate at the desired pH, and resuspended in the same buffer to yield the initial volume. They were diluted 10 times in the same buffer, and 200 uL of this suspension was used for each tube. This yields 10 ? 8 RBCs per tube. Each tube contained 800 uL of buffer, 200 uL of the RBC suspension, and the peptide with or without polymer. Each sample was then repeated to verify reproducibility. The tubes were incubated for 30 minutes in a 37 C water bath. They were spun for 5 min at full speed in the microcentifuge. Lysis was determined by measuring the absorbance of the supernatant at 541 nm, reflecting the amount of hemoglobin that had been released into the supernatant. Percent hemolysis was calculated assuming 100% lysis to be measured by the hemoglobin released by the red blood cells in water; controls of RBCs in buffer with no peptide were also run.

[7] = 15 mM sodium acetate pH 5 buffer
Procedure: The absorbance of the solution at 225 nm, which is the wavelength at which enol ethers absorb (Kresge, A. J.; Sagatys, D. S.; Chen, H. L. J. Am. Chem. Soc. 1977, 99, 7228) was measured over time.
The absorbance of the solution at 225 nm was measured as a function of time.

## CCCCCCCC/C=C\CCCCCCCC(=O)OCC(COC(=O)/C(C)=C(/C)C(=O)O)OC(=O)CCCCCCC/C=C\CCCCCCCC (centres unmarked) [2,3-dimethylmaleamic-modified DOG]
[1]
  Relative Light Units (luciferase expression): 193624 Relative Light Units
  Relative Light Units relative to poly-L-lysine (no lipid): 32

## CCCCCCCC/C=C\CCCCCCCC(=O)OC[C@H](COP(=O)(O)OCCNC(=O)/C(C)=C(/C)C(=O)O)OC(=O)CCCCCCC/C=C\CCCCCCCC [2,3-dimethylmaleamic-modified DOPE]
[1]
  Relative Light Units (luciferase expression): 243359 Relative Light Units
  Relative Light Units relative to poly-L-lysine (no lipid): 40

## C/C(C(N)=O)=C(\CCC(=O)O)C(=O)O [2-propionic-3-methylmaleamic acid]
[2]
  rate of maleamic acid cleavage compared: the same as that for 2,3-dimethylmaleamic acids

## CC[C@H](C)[C@H](NC(=O)CN)C(=O)NCC(=O)N[C@@H](C)C(=O)N[C@H](C(=O)N[C@@H](CC(C)C)C(=O)N[C@@H](CCCCN)C(=O)N[C@H](C(=O)N[C@@H](CC(C)C)C(=O)N[C@H](C(=O)N[C@H](C(=O)NCC(=O)N[C@@H](CC(C)C)C(=O)N1CCC[C@H]1C(=O)N[C@@H](C)C(=O)N[C@@H](CC(C)C)C(=O)N[C@H](C(=O)N[C@@H](CO)C(=O)N[C@@H](Cc1c[nH]c2ccccc12)C(=O)N[C@H](C(=O)N[C@@H](CCCCN)C(=O)N[C@@H](CCCNC(=N)N)C(=O)N[C@@H](CCCCN)C(=O)N[C@@H](CCCNC(=N)N)C(=O)N[C@@H](CCC(N)=O)C(=O)N[C@@H](CCC(N)=O)C(N)=O)[C@@H](C)CC)[C@@H](C)CC)[C@@H](C)O)[C@@H](C)O)C(C)C)C(C)C [Melittin, reference compound]
[3]
  cell death (propidium iodide staining of nuclei and loss of cells): ~100%
[4]; control, 100% lysis with melittin alone
  A541 (red blood cell lysis): 1.881

## KLLKLLLKLWLKLLKLLLKLL [KL3]
[5]; pCIluc DNA/poly-L-lysine complex plus named additive, 48 h, average of two wells
  Relative Light Units (luciferase expression): 261 Relative Light Units
[5]; value in parentheses
  Relative Light Units relative to Succinylated poly-L-lysine: 0.04
[6]
  hemolysis: 86%

## Melittin Conjugated to Microspheres: melittin attached to carboxylic acid modified microspheres via Di-(2-methyl-4-hydroxymethyl-1,3-dioxolane)-1,4-benzene ketal
[4]; 30 min pH 5.0, 37° C.
  A541 (red blood cell lysis): 0.659
[4]; 30 min pH 5.5, 37° C.
  A541 (red blood cell lysis): 0.609
[4]; 30 min pH 6.0, 37° C.
  A541 (red blood cell lysis): 0.326
[4]; 30 min pH 7.5, 37° C.
  A541 (red blood cell lysis): 0.026
[4]; 60 min pH 5.0, 37° C.
  A541 (red blood cell lysis): 0.730
[4]; 60 min pH 5.5, 37° C.
  A541 (red blood cell lysis): 0.526
[4]; 60 min pH 6.0, 37° C.
  A541 (red blood cell lysis): 0.212
[4]; 60 min pH 7.5, 37° C.
  A541 (red blood cell lysis): 0.027
[4]; 90 min pH 5.0, 37° C.
  A541 (red blood cell lysis): 0.892
[4]; 90 min pH 5.5, 37° C.
  A541 (red blood cell lysis): 0.640
[4]; 90 min pH 6.0, 37° C.
  A541 (red blood cell lysis): 0.390
[4]; 90 min pH 7.5, 37° C.
  A541 (red blood cell lysis): 0.036
[4]; 16 hrs pH 5.0, 37° C.
  A541 (red blood cell lysis): 1.163
[4]; 16 hrs pH 5.5, 37° C.
  A541 (red blood cell lysis): 0.796
[4]; 16 hrs pH 6.0, 37° C.
  A541 (red blood cell lysis): 0.354
[4]; 16 hrs pH 7.5, 37° C.
  A541 (red blood cell lysis): 0.065
[4]; all acidic pH levels tested
  time of rapid release of modified peptide: < 30 min
[4]; pH 7.5
  release of modified peptide from the microsphere: not released
[4]; second experiment, 30 min pH 5.0 supernatant
  A541 (red blood cell lysis): 0.685
[4]; second experiment, 30 min pH 6.0 supernatant
  A541 (red blood cell lysis): 0.213
[4]; second experiment, 30 min pH 7.5 supernatant
  A541 (red blood cell lysis): 0.053
[4]; second experiment, pH 5.0, 2.5 M NaCl wash
  A541 (red blood cell lysis): 0.101
[4]; second experiment, pH 6.0, 2.5 M NaCl wash
  A541 (red blood cell lysis): 0.162
[4]; second experiment, pH 7.5, 2.5 M NaCl wash
  A541 (red blood cell lysis): 0.087

## glycolic acid ethoxylate(4 units) 4-tert-buty-1,4-cyclohexadiene ether
[7]
  rate constant of enol ether hydrolysis: 0.0159 min⁻¹
